Reference: US20020137929A1, “1 - (3-heterocyclylphenyl) isothiourea, -isourea, -guanidine and -amidine herbicidal agents” (Intellectual Property Department, BASF Aktiengesellschaft, priority 1998, published 2002)

What was measured:
[1] = test system: ECHCG (Barnyardgrass); assay: Preemergence herbicidal evaluation; type: in vivo, Echinochloa crus-galli; details: rated 4-5 weeks after treatment
Summary of the method: (§1)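 Test compound, dissolved in aqueous acetone, was sprayed over planted soil cups at an equivalent of about 0.0156 to 0.500 kg/ha; seeds had been mixed with potting soil. Greenhouse growth followed, with visual 0-9 scoring of injury at four to five weeks.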

[2] = test system: ABUTH (Velvetleaf); assay: Postemergence herbicidal evaluation; type: in vivo, Abutilon theophrasti
Summary of the method: (§2)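 Seedlings grown about two weeks were sprayed at 40 psi with compound dispersed in 50/50 acetone/water plus 0.5% TWEEN 20, at about 0.0156 to 0.500 kg/ha. Plants were kept in the greenhouse and scored 4–5 weeks later on a 0–9 visual scale against untreated controls.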

[3] = test system: ZEAMX (Corn, Field); assay: Preemergence herbicidal evaluation; type: in vivo, Zea mays; details: rated 4-5 weeks after treatment
Summary of the method: as §1

[4] = test system: ABUTH (Velvetleaf); assay: Preemergence herbicidal evaluation; type: in vivo, Abutilon theophrasti; details: rated 4-5 weeks after treatment
Summary of the method: as §1

[5] = test system: CHEAL (Lambsquarters, Common); assay: Preemergence herbicidal evaluation; type: in vivo, Chenopodium album; details: rated 4-5 weeks after treatment
Summary of the method: as §1

[6] = test system: ORYSAT (Rice, Tebonnet); assay: Postemergence herbicidal evaluation; type: in vivo, Oryza sativa, (L.) Tebonnet
Summary of the method: as §2

[7] = test system: GLXMAW (Soybean, Williams); assay: Preemergence herbicidal evaluation; type: in vivo, Glycine max, (L.) Merr. cv Williams; details: rated 4-5 weeks after treatment
Summary of the method: as §1

[8] = test system: TRZAWR (Wheat, Winter, cv Riband); assay: Preemergence herbicidal evaluation; type: in vivo, Triticum aestivum; details: rated 4-5 weeks after treatment
Summary of the method: as §1

[9] = test system: ECHCG (Barnyardgrass); assay: Postemergence herbicidal evaluation; type: in vivo, Echinochloa crus-galli
Summary of the method: as §2

[10] = test system: SETVI (Foxtail, Green); assay: Postemergence herbicidal evaluation; type: in vivo, Setaria viridis
Summary of the method: as §2

[11] = test system: IPOHE (Morningglory, Ivyleaf); assay: Preemergence herbicidal evaluation; type: in vivo, Ipomoea hederacea; details: rated 4-5 weeks after treatment
Summary of the method: as §1

[12] = test system: CASOB (Sicklepod); assay: Preemergence herbicidal evaluation; type: in vivo, Cassia obtusifolia; details: rated 4-5 weeks after treatment
Summary of the method: as §1

[13] = test system: ZEAMX (Corn, Field); assay: Postemergence herbicidal evaluation; type: in vivo, Zea mays
Summary of the method: as §2

[14] = test system: CYPSE (Flatsedge); assay: Postemergence weed control under flooded paddy conditions; type: in vivo, Cyperus serotinus; details: postemergence weeds, 3-4 weeks after treatment
Summary of the method: (§3)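 Flood-water application, about 0.0313–0.500 kg/ha a.i. in aqueous/acetone 50/50 v/v; water depth 1.5–3 cm throughout. Weeds 3–5 cm, rice 1.5–2.5 leaf. Greenhouse; 0–9 visual rating vs control at 3–4 wk.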

[15] = test system: CHEAL (Lambsquarters, Common); assay: Postemergence herbicidal evaluation; type: in vivo, Chenopodium album
Summary of the method: as §2

[16] = test system: IPOHE (Morningglory, Ivyleaf); assay: Postemergence herbicidal evaluation; type: in vivo, Ipomoea hederacea
Summary of the method: as §2

[17] = test system: CYPIR (Rice Flatsedge); assay: Postemergence weed control under flooded paddy conditions; type: in vivo, Cyperus iria; details: postemergence weeds, 3-4 weeks after treatment
Summary of the method: as §3

Compound: Cn1c(C(F)(F)F)cc(=O)n(-c2cc(N=C3SCC(=O)N3[C@@H](Cc3ccccc3)C(=O)O)c(Cl)cc2F)c1=O [Compound 53, α-Benzyl-2-{{2-chloro-5-[3,6-dihydro-3-methyl-2,6-dioxo-4-(trifluoromethyl)-1(2H)-pyrimidinyl]-4-fluorophenyl}imino}-4-oxo-3-thiazolidineacetic acid, L-]
- Preemergence herbicidal rating ECHCG ([1]; rate 0.0313 kg/ha): 1.0
- Preemergence herbicidal rating ECHCG ([1]; rate 0.0625 kg/ha): 4.0
- Preemergence herbicidal rating ECHCG ([1]; rate 0.1250 kg/ha): 7.0
- Preemergence herbicidal rating ECHCG ([1]; rate 0.2500 kg/ha): 9.0
- Postemergence herbicidal rating ABUTH ([2]; Rate 0.0158 kg/ha): 9.0
- Postemergence herbicidal rating ABUTH ([2]; Rate 0.0315 kg/ha): 9.0
- Postemergence herbicidal rating ABUTH ([2]; Rate 0.0630 kg/ha): 9.0
- Preemergence herbicidal rating ZEAMX ([3]; rate 0.0313 kg/ha): 1.0
- Preemergence herbicidal rating ZEAMX ([3]; rate 0.0625 kg/ha): 1.0
- Preemergence herbicidal rating ZEAMX ([3]; rate 0.1250 kg/ha): 5.0
- Preemergence herbicidal rating ZEAMX ([3]; rate 0.2500 kg/ha): 6.0
- Preemergence herbicidal rating ABUTH ([4]; rate 0.0313 kg/ha): 7.0
- Preemergence herbicidal rating ABUTH ([4]; rate 0.0625 kg/ha): 9.0
- Preemergence herbicidal rating ABUTH ([4]; rate 0.1250 kg/ha): 9.0
- Preemergence herbicidal rating ABUTH ([4]; rate 0.2500 kg/ha): 9.0
- Preemergence herbicidal rating CHEAL ([5]; rate 0.0313 kg/ha): 9.0
- Preemergence herbicidal rating CHEAL ([5]; rate 0.0625 kg/ha): 9.0
- Preemergence herbicidal rating CHEAL ([5]; rate 0.1250 kg/ha): 9.0
- Preemergence herbicidal rating CHEAL ([5]; rate 0.2500 kg/ha): 9.0
- Postemergence herbicidal rating ORYSAT ([6]; Rate 0.0158 kg/ha): 2.0
- Postemergence herbicidal rating ORYSAT ([6]; Rate 0.0315 kg/ha): 2.5
- Postemergence herbicidal rating ORYSAT ([6]; Rate 0.0630 kg/ha): 3.5
- Preemergence herbicidal rating GLXMAW ([7]; rate 0.0313 kg/ha): 0.0
- Preemergence herbicidal rating GLXMAW ([7]; rate 0.0625 kg/ha): 0.0
- Preemergence herbicidal rating GLXMAW ([7]; rate 0.1250 kg/ha): 2.0
- Preemergence herbicidal rating GLXMAW ([7]; rate 0.2500 kg/ha): 4.0
- Preemergence herbicidal rating TRZAWR ([8]; rate 0.0313 kg/ha): 0.0
- Preemergence herbicidal rating TRZAWR ([8]; rate 0.0625 kg/ha): 1.0
- Preemergence herbicidal rating TRZAWR ([8]; rate 0.1250 kg/ha): 2.0
- Preemergence herbicidal rating TRZAWR ([8]; rate 0.2500 kg/ha): 7.0
- Postemergence herbicidal rating ECHCG ([9]; Rate 0.0158 kg/ha): 2.0
- Postemergence herbicidal rating ECHCG ([9]; Rate 0.0315 kg/ha): 3.0
- Postemergence herbicidal rating ECHCG ([9]; Rate 0.0630 kg/ha): 9.0
- Postemergence herbicidal rating SETVI ([10]; Rate 0.0158 kg/ha): 6.0
- Postemergence herbicidal rating SETVI ([10]; Rate 0.0315 kg/ha): 6.0
- Postemergence herbicidal rating SETVI ([10]; Rate 0.0630 kg/ha): 7.0
- Preemergence herbicidal rating IPOHE ([11]; rate 0.0313 kg/ha): 0.0
- Preemergence herbicidal rating IPOHE ([11]; rate 0.0625 kg/ha): 9.0
- Preemergence herbicidal rating IPOHE ([11]; rate 0.1250 kg/ha): 9.0
- Preemergence herbicidal rating IPOHE ([11]; rate 0.2500 kg/ha): 9.0
- Preemergence herbicidal rating CASOB ([12]; rate 0.0313 kg/ha): 0.0
- Preemergence herbicidal rating CASOB ([12]; rate 0.0625 kg/ha): 0.0
- Preemergence herbicidal rating CASOB ([12]; rate 0.1250 kg/ha): 1.0
- Preemergence herbicidal rating CASOB ([12]; rate 0.2500 kg/ha): 1.0
- Postemergence herbicidal rating ZEAMX ([13]; Rate 0.0158 kg/ha): 5.5
- Postemergence herbicidal rating ZEAMX ([13]; Rate 0.0315 kg/ha): 7.5
- Postemergence herbicidal rating ZEAMX ([13]; Rate 0.0630 kg/ha): 8.0
- Herbicidal rating CYPSE ([14]; rate 0.0313 kg/ha): 0.0
- Herbicidal rating CYPSE ([14]; rate 0.0625 kg/ha): 0.0
- Herbicidal rating CYPSE ([14]; rate 0.1250 kg/ha): 0.0
- Herbicidal rating CYPSE ([14]; rate 0.2500 kg/ha): 0.0
- Postemergence herbicidal rating CHEAL ([15]; Rate 0.0158 kg/ha): 7.0
- Postemergence herbicidal rating CHEAL ([15]; Rate 0.0315 kg/ha): 9.0
- Postemergence herbicidal rating CHEAL ([15]; Rate 0.0630 kg/ha): 9.0
- Postemergence herbicidal rating IPOHE ([16]; Rate 0.0158 kg/ha): 9.0
- Postemergence herbicidal rating IPOHE ([16]; Rate 0.0315 kg/ha): 9.0
- Postemergence herbicidal rating IPOHE ([16]; Rate 0.0630 kg/ha): 9.0
- Herbicidal rating CYPIR ([17]; rate 0.0313 kg/ha): 2.0
- Herbicidal rating CYPIR ([17]; rate 0.0625 kg/ha): 2.0
- Herbicidal rating CYPIR ([17]; rate 0.1250 kg/ha): 9.0
- Herbicidal rating CYPIR ([17]; rate 0.2500 kg/ha): 9.0
